Assay results from patent US20250313560A1, “Novel bicyclic benzylamido pyridine derivatives as SOS1 inhibitors” (Boehringer Ingelheim International GmbH, priority 2024, published 2025).
Like-named read-outs stand apart in the source and are kept apart here.

How the values were obtained:
[1] = molecular target: SOS1 and KRAS G12C (Homo sapiens (Human), UniProt Q07889); test: KRAS::SOS1 AlphaScreen binding assay (KRAS G12C); details: average of at least two measurements
Description: (§1) Low IC50 values are indicative of high potency of the SOS1 inhibitor compound in this assay setting:
(§2) • GST-tagged SOS1 (564_1049_GST_TEV_ECO) produced in-house • 6xHis-Tev-K-RasG12D/G12C(1-169)Avi produced in-house • GDP (Sigma Cat No G7127) • AlphaLISA Glutathione Acceptor Beads (PerkinElmer, Cat No AL109) • AlphaScreen Streptavidin Donor Beads (PerkinElmer Cat No 6760002) • Assay plates: Proxiplate-384 PLUS, white (PerkinElmer, Cat No 6008289)
(§3) [formula] • KRAS::SOS1 GDP mix: • 7.5 nM (final assay concentration) K-RasG12C, 10 nM (final assay concentration) K-RasG12D, 10 μM (final assay concentration) GDP and 5 nM (final assay concentration) GST-SOS1 are mixed in assay buffer prior to use and kept at rt. Bead mix: • AlphaLISA Glutathione Acceptor Beads and AlphaScreen Streptavidin Donor Beads are mixed in the dark in assay buffer at a concentration of 10 μg/mL (final assay concentration) each prior to use and kept at rt.
(§4) Compounds are diluted to a final start concentration of 100 μM and are tested in duplicate. Assay-ready plates (ARPs) are generated using an Access Labcyte Workstation with a Labcyte Echo 550 or 555 acoustic dispenser. For compound a start concentration of 100 μM, 150 nL of compound solution is transferred per well in 11 concentrations in duplicate with serial 1:5 dilutions.
(§5) The assay is run using a fully automated robotic system in a darkened room below 100 Lux. 10 μL of KRAS::SOS1 GDP mix is added into columns 1-24 to the 150 nL of compound solution (final dilution in the assay 1:100, final DMSO concentration 1%).
(§6) After a 30 minute incubation time, 5 μL of bead mix is added into columns 1-23. Plates are kept at rt in a darkened incubator. After a further 60 minutes incubation, the signal is measured using a PerkinElmer Envision HTS Multilabel Reader using the AlphaScreen specifications from PerkinElmer. Each plate contains the following controls:
(§7) diluted DMSO+KRAS::SOS1 GDP mix+bead mix
(§8) diluted DMSO+KRAS::SOS1 GDP mix
(§9) Result calculation: IC50 values are calculated and analyzed using a 4 parametric logistic model.
(§10) Table 1: Inhibition values for KRAS G12C as well as for KRAS G12D. […] The value indicates an average value of at least two measurements.

[2] = molecular target: SOS1 and KRAS G12D (Homo sapiens (Human), UniProt Q07889); test: KRAS::SOS1 AlphaScreen binding assay (KRAS G12D); details: average of at least two measurements
SOS1 and KRAS G12D, sequence (Q07889 564-1049, stated change not applied): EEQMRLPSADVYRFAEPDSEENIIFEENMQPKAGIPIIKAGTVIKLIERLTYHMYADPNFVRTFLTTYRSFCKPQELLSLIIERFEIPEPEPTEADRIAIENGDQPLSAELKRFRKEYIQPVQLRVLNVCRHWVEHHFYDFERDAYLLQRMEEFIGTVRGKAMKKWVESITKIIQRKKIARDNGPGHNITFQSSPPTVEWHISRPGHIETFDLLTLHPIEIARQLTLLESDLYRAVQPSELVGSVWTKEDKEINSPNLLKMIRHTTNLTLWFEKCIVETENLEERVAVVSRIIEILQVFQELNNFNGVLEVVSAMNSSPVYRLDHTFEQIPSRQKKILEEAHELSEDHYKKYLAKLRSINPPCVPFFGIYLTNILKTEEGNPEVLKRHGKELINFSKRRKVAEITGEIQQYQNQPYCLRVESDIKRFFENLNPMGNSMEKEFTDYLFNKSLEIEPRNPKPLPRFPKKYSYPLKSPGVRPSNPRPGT
Description: as §1, §2, §3, §4, §5, §6, §7, §8, §9, §10

[3] = system: ERK phosphorylation in NCI-H358 SOS2 KO cells (KRAS G12C); test: Erk phosphorylation assay; format: cell-based, human; details: EGF stimulated, average of at least two measurements, read-out: pERK IC50
Description: Low IC50 values are indicative of high potency of the SOS1 inhibitor compounds in this assay setting.
ERK phosphorylation assays are performed using the following human cell line: • NCI-H358 SOS2 KO (Hofmann, Gmachl, Ramharter et al, Cancer Discov. 2021, 11(1):142-15): human lung cancer with a KRAS G12C mutation;
NCI-H358 SOS2 KO are seeded at 50000 cells per well in 60 μL of DMEM with 2% FBS, in Greiner TC 384 plates. The cells are incubated overnight in an incubator at 37° C. and 5% CO2 in a humidified atmosphere. 60 nL compound solution (10 mM DMSO stock solution) is then added using a Beckman Coulter Labcyte Echo 550 device. After 50 min incubation in the aforementioned incubator, 5 nl EGF are added to each well for a final concentration of approx. 8 ng/mL using a Beckman Coulter Labcyte Echo 550 device and cells are incubated for another 10-15 minutes before lysis. The medium is removed, and the cells are lysed by addition of 20 μL of 1.6-fold lysis buffer from the AlphaLISA SureFire Ultra pERK1/2 (Thr202/Tyr204) Assay Kit with added protease inhibitors. After 20 minutes of incubation at rt with shaking, 6 μL of each lysate sample is transferred to a 384-well Proxiplate and analyzed for pERK (Thr202/Tyr204) with the AlphaLISA SureFire Ultra pERK1/2 (Thr202/Tyr204) Assay Kit. 3 μL Acceptor Mix and 3 μL Donor Mix are added under subdued light and incubated for 2 h at rt in the dark, before the signal is measured on a Perkin Elmer Envision plate reader using 384 AlphaScreen settings for Proxiplates. Data are fitted by iterative calculation with variable hill slope. The sigmoidal curve slope is fitted using a default fitting curve to ascertain IC50 values.
Table 2: Erk Phosphorylation assay. The value indicates an average value of at least two measurements.

[4] = molecular target: P450 3A4 (Homo sapiens (Human), UniProt P08684); test: Cytochrome P450 isoenzyme inhibition assay (P450 3A4, midazolam); format: in vitro ADME; details: human liver microsomes, Midazolam as substrate; read-out: CYP3A4 inhibition IC50
P450 3A4, sequence (P08684 whole entry): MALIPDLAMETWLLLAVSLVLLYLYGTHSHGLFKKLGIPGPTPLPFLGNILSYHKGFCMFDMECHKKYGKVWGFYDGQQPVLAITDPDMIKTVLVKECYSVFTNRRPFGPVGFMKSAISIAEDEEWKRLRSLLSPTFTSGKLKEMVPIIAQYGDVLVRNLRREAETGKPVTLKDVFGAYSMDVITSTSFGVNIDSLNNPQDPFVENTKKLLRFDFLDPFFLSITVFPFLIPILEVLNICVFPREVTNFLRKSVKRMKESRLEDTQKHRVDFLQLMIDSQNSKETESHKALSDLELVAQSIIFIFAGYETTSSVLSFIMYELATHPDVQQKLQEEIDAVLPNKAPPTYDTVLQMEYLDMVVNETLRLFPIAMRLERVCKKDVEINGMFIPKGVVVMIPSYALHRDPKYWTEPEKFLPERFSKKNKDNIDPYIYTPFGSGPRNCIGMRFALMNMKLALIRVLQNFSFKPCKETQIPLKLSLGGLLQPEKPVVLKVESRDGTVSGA
Description: For the following cytochrome P450 isoenzymes, these substrates and metabolic reactions are monitored: P450 3A4: hydroxylation of Midazolam (MDZ).
The final incubation volume contains TRIS buffer (0.1 M), MgCl2 (5 mM), a certain concentration of human liver microsomes dependent on the P450 isoenzyme measured (P450 3A4: 0.1 mg/ml) and a certain concentration of the individual substrate for each isoenzyme (P450 3A4: Midazolam 5 μM).
The effect of the test compound is determined at five different concentrations in duplicate (e.g. highest concentration 50 μM with subsequent serial 1:4 dilutions) or without test compound (high control). Following a short preincubation period, reactions are started with the cofactor (NADPH, 1 mM) and stopped by cooling the incubation down to 8° C. and subsequently by addition of one volume of ACN. An internal standard solution—usually the stable isotope of the formed metabolite—is added after quenching of incubations. Peak area analyte (=metabolite formed) and internal standard is determined by LC-MS/MS. The resulting peak area ratio analyte to internal standard in these incubations is compared to a control activity containing no test compound. Within each of the assay runs, the IC50 of a positive control inhibitor dependent on the P450 isoenzyme measured (P450 3A4: ketoconazole) is determined. The assay results are plotted against compound concentrations to calculated IC50 values (half maximal inhibitory concentrations) for inhibitory compounds utilizing Software IDBS E-WorkBook.
Table 4: Inhibition of P450 isoenzyme 3A^4.

[5] = system: human hepatocytes; test: Metabolic stability in human hepatocytes; details: 1 μM test compound, 50% human serum, percentage of liver blood flow
Description: The metabolic degradation of a test compound is performed with hepatocytes in suspension. After recovery from cryopreservation, human hepatocytes are diluted in Dulbecco's modified eagle medium (supplemented with 3.5 μg glucagon/500 mL, 2.5 mg insulin/500 mL, 3.75 mg hydrocortisone/500 mL, 50% human serum) to obtain a final cell density of 1.0×10^6 cells/mL. Following a preincubation in a cell culture incubator (37° C., 10% CO2), test compound dissolved in DMSO is mixed with the hepatocyte suspension, resulting in a final test compound concentration of 1 μM and a final DMSO concentration of 0.05%.
The cell suspension is incubated at 37° C. (cell culture incubator, horizontal shaker) and samples are removed from the incubation after 0, 0.5, 1, 2, 4 and 6 hours. Samples are quenched with acetonitrile (containing internal standard) and pelleted by centrifugation. The supernatant is transferred to a deep-well plate and prepared for analysis of decline of parent compound by HPLC-MS/MS.
The percentage of remaining test compound is calculated using the peak area ratio (test compound/internal standard) of each incubation time point relative to the time point 0 peak area ratio. The log-transformed data are plotted versus incubation time, and the absolute value of the slope obtained by linear regression analysis is used to estimate in vitro half-life (T1/2).
CL_[sequence]_IN VIVO[mL/min/kg]=(CL_[sequence][μL/min/10^6cells]×hepatocellularity[10^6cells/g liver]×liver factor[g/kg body weight])/1000
Hepatic in vivo blood clearance (CL) is predicted according to the well-stirred liver model considering an average liver blood flow (QH) of 20.7 mL/min/kg:
CL[mL/min/kg]=CL_[sequence]_IN VIVO[mL/min/kg]×hepatic blood flow[mL/min/kg]/(CL_[sequence]_IN VIVO[mL/min/kg]+hepatic blood flow[mL/min/kg])
Results are expressed as percentage of hepatic blood flow:
QH[%]=CL[mL/min/kg]/hepatic blood flow[mL/min/kg])

[6] = molecular target: CYP3A4 (Homo sapiens (Human), UniProt P08684); test: Mechanism-based inhibition of CYP3A4 assay (MBI 3A4); format: in vitro ADME; details: human liver microsomes, midazolam substrate, hydroxy-midazolam formation after 30 min preincubation relative to 0 min; for inhibition at 30 min: human, probe midazolam 15 μM (hydroxy-midazolam formation), read-out: MBI inhibition % ctrl. [%] with MDZ
CYP3A4, sequence (P08684 whole entry): as above
Description: Mechanism-Based Inhibition of CYP3A4 assay (MBI 3A4): The mechanism-based inhibition towards CYP3A4 is assayed in human liver microsomes with midazolam as substrate. The test compounds and water control (wells w/o test compound) are preincubated in presence of NADPH (1 mM) with human liver microsomes (0.2 mg/mL) at a concentration of 0, 5 and 25 μM for 0, 10 and 30 min. After preincubation, the incubate is diluted 1:10 (to 0.02 mg/mL) and the substrate midazolam (15 μM) is added for the main incubation (10 min). The main incubation is quenched with ACN and the formation of hydroxy-midazolam is quantified via LC/MS-MS. The formation of hydroxy-midazolam from the 30 min preincubation relative to the formation from the 0 min preincubation is used as a readout. Values of less than 100% mean that the substrate midazolam is metabolized to a lower extent upon 30 min preincubation compared to 0 min preincubation. In general, low effects upon 30 min preincubation are desired (corresponding to values close to 100%/not different to the values determined with water control).
Table 5: Mechanism-based inhibition of P450 isoenzyme 3A4 with midazolam as substrate.

[7] = Homo sapiens, NCI-H358, NCI-H358 SOS2 KO cells

SOS1 and KRAS G12C, sequence (Q07889 564-1049, stated change not applied): as the sequence (Q07889 564-1049, stated change not applied) above

Row | SMILES | IC50 [1] | IC50 [2] | IC50 ([3]; NCI-H358 SOS2 KO cells) | IC50 [4] | Hepatic clearance - QH[%] in human hepatocytes [5] | MBI inhibition % ctrl. [%] with MDZ [6] | IC50 [3, 7] | inhibition at 30 min [6]
1 | C[C@@H](NC(=O)c1cc(N2CCC(N3CC4CC4C3CO)CC2)c2ncnn2c1)c1cccc(C(F)F)c1F (single isomer, unassigned) [Example cis-E11a] | 22 nM | 15 nM |  | > 50000 nM | 38% |  | 173 nM | 
2 | C[C@@H](NC(=O)c1cc(N2CCC(N3CC4CC4C3CO)CC2)c2ncnn2c1)c1cccc(C(F)F)c1F (single isomer, unassigned) [Example cis-E11b] | 28 nM | 19 nM | 145 nM | > 50000 nM | 27% |  |  | 
3 | C[C@@H](NC(=O)c1cc(N2CCC(NC3COCC3O)CC2)c2ncnn2c1)c1cccc(C(F)(F)F)c1F (single isomer, unassigned) [Example cis-E41a] | 50 nM | 38 nM | 463 nM | > 50000 nM | 37% |  |  | 
4 | C[C@@H](NC(=O)c1cc(N2CCC3CCNC3C2)c2ncnn2c1)c1cccc(C(F)(F)F)c1F (single isomer, unassigned) [Example cis-E52a] | 59 nM | 58 nM | 115 nM | > 50000 nM | 7% |  |  | 
5 | C[C@@H](NC(=O)c1cc(N2CCC(NC3CCCC3(C)O)CC2)c2ncnn2c1)c1cccc(C(F)(F)F)c1F (single isomer, unassigned) [Example trans-E53a] | 24 nM | 24 nM | 143 nM | > 50000 nM | 45% |  |  | 
6 | C[C@@H](NC(=O)c1cc([C@H]2CC[C@H](N3CCC(F)C(O)C3)CC2)c2ncnn2c1)c1cccc(C(F)(F)F)c1F (single isomer, unassigned) [Example trans-E70a] | 29 nM | 34 nM |  | > 50000 nM | 25% |  | 259 nM | 
7 | C[C@@H](NC(=O)c1cc(N2CC3CCC(C2)N3C)c2nncn2c1)c1cccc(C(F)(F)F)c1F [Example E76] | 49 nM | 36 nM |  | > 50000 nM |  |  | 230 nM | 84%
8 | CC(C)N1CC=C(c2cc(C(=O)N[C@H](C)c3cccc(C(F)(F)F)c3F)cn3cnnc23)CC1 [Example E83] | 30 nM | 26 nM |  | > 50000 nM |  |  | 132 nM | 86%

Further lines, with some results ahead:

Row | IC50 [1] | IC50 [2] | IC50 ([3]; NCI-H358 SOS2 KO cells) | IC50 [4] | Hepatic clearance - QH[%] in human hepatocytes [5] | MBI inhibition % ctrl. [%] with MDZ [6] | IC50 [3, 7] | SMILES | inhibition at 30 min [6]
9 | 39 nM | 28 nM | 94 nM | > 50000 nM | 13% |  |  | C[C@@H](NC(=O)c1cc(N2CCC(N3CCCC(O)CC3)CC2)c2ncnn2c1)c1cccc(C(F)F)c1F (single isomer, unassigned) [Example E17a] | 
10 | 34 nM | 35 nM | 101 nM | > 50000 nM |  | 94% |  | C[C@@H](NC(=O)c1cc(N2CCC(N3CCCC(O)CC3)CC2)c2ncnn2c1)c1cccc(C(F)(F)F)c1F (single isomer, unassigned) [Example E43b] | 
11 | 52 nM | 54 nM |  | > 50000 nM | 21% |  | 288 nM | C[C@@H](NC(=O)c1cc(N2CCC(N(C)CC3(O)CC3)CC2)c2ncnn2c1)c1cccc(C(F)F)c1F [Example E13] | 
12 | 69 nM | 51 nM |  | > 50000 nM | 31% |  | 490 nM | C[C@@H](NC(=O)c1cc(N2CCC(N3CCO[C@H](CO)C3)CC2)c2ncnn2c1)c1cccc(C(F)F)c1F [Example E14] | 
13 | 68 nM | 46 nM |  | > 50000 nM | 31% |  | 554 nM | C[C@@H](NC(=O)c1cc(N2CCC(N3CCO[C@@H](CO)C3)CC2)c2ncnn2c1)c1cccc(C(F)F)c1F [Example E15] | 
14 | 80 nM | 73 nM |  | > 50000 nM | 15% |  | 326 nM | C[C@@H](NC(=O)c1cc(N2CCC(N3CCC4(CC4)C3)CC2)c2ncnn2c1)c1cccc(C(F)(F)F)c1F [Example E33] | 
15 |  |  |  |  | 25% |  |  | C[C@@H](NC(=O)c1cc(N2CCC(N3CCCC(O)CC3)CC2)c2ncnn2c1)c1cccc(C(F)(F)F)c1F (stereo partly shown) [Example E43b] | 
16 | 49 nM | 43 nM |  | > 50000 nM | 23% |  | 250 nM | C[C@@H](NC(=O)c1cc(N2CCC(N3CCCCC3)CC2)c2ncnn2c1)c1cccc(C(F)(F)F)c1F [Example E49] | 
